Legend:
STZ-induced DKD rats [1] = experiment: Body weight, water intake and food intake of STZ-induced DKD rats; assay type: in vivo, rat
Description: (§1) SD rats (200±10 g) were used as model animals, which were fasted for 12 h before injection. STZ was dissolved in citrate buffer at 1% concentration, and rats were fasted and intraperitoneally injected with 55 mg/kg STZ and placed in the cage, the rats being ensured with adequate water intake for 24 h. STZ injections need to be fast and complete within 10 minutes of injection. The normal control group was injected with an equal volume of pH 4.5 citric acid-sodium citrate buffer. The state of the animals (multiple drinking and polyuria) was observed. After 3 weeks of STZ injection, blood was collected from the tail vein, and fasting blood glucose ≥16.7 mmol/L was measured as the standard for diabetic nephropathy in rats.
(§2) DKD rats were randomly assigned to 6 groups and given with different drugs. After 6 weeks of administration, the experiment was terminated and the protective effect of the drug on DKD rats was observed.
The general condition and body weight changes after rat modeling were observed weekly. The general conditions include the activity, mental state, coat color, diet, water intake and urine volume of the rats. The amount of water and the amount of feed were recorded weekly.

STZ-induced DKD rats [2] = experiment: Serum biochemical parameters of STZ-induced DKD rats; assay type: in vivo, rat; details: six weeks after administration, dose-dependent
Description: as §1, §2
Six weeks after the administration, the rats were anesthetized, and the blood was taken from the abdominal aorta, and, after standing for 1 hour, was centrifuged at 3000 rmp for 10 min and stored at −70° C. Serum levels of creatinine, urea nitrogen, cholesterol and triglycerides were measured using an automated biochemical analyzer.

db/db mice [3] = experiment: 24 h urine microalbumin in db/db mice; assay type: in vivo, mouse; details: TBN 10, 30, 60 mg/kg, end of 6 weeks; especially 30 and 60 mg/kg (P<0.001)
Source text: db/db mice are congenital obese type 2 DKD mice with spontaneous mutations in the leptin receptor (Leptin receptor, Lepr) due to a point mutation in the leptin receptor gene GT located on chromosome 4. The course of polyphagia, polyuria, diabetes and hyperglycemia is similar to that of humans, and it is currently the most widely used type 2 spontaneous animal model of DKD. The db/db mice have a series of complications with the aggravation of diabetes. The main pathological changes of renal tissue are the expansion of the glomerular mesangial interstitium, the thickening of the glomerular basement membrane, and the excessive accumulation of extracellular matrix. However, the glomerular mesangium of db/db mice changes relatively slowly, and the glomerular mesangium will not be dissolved or nodular glomerulosclerosis, and there is no progressive renal insufficiency. […]
db/db mice were tested for 24 h urine microalbumin in the 4th and 6th week after drug treatment. […] The absorbance value (OD value) was measured at 450 nm wavelength; the blank control hole was used for adjusting zero, the microalbuminuria standard concentration was used as the abscissa, the OD value as the ordinate, the standard curve regression equation was calculated, and on the basis of the regression equation and the sample's OD value, the concentration of the sample was determined.

db/db mice [4] = experiment: Serum iron content of db/db mice; assay type: in vivo, mouse; design: iron content in the serum: unit not given here; details: for iron content in the serum: 6 weeks, db/db model group 28.13±4.46
Source text: db/db mice are congenital obese type 2 DKD mice with spontaneous mutations in the leptin receptor (Leptin receptor, Lepr) due to a point mutation in the leptin receptor gene GT located on chromosome 4. The course of polyphagia, polyuria, diabetes and hyperglycemia is similar to that of humans, and it is currently the most widely used type 2 spontaneous animal model of DKD. The db/db mice have a series of complications with the aggravation of diabetes. The main pathological changes of renal tissue are the expansion of the glomerular mesangial interstitium, the thickening of the glomerular basement membrane, and the excessive accumulation of extracellular matrix. However, the glomerular mesangium of db/db mice changes relatively slowly, and the glomerular mesangium will not be dissolved or nodular glomerulosclerosis, and there is no progressive renal insufficiency.
Six-week-old db/db mice were purchased, and start the administration after adaptive feeding for 1 week (i.e., 7-week-old). TBN is administered twice a day (fixed by starting from 9:00-10:00 am and 3:00-4:00 pm, with an interval of 6 hours), and the positive control drug Losartan was administered once a day (fixed at 9:00-10:00 am) for 6 weeks.
At the end of the experiment, serum iron content was measured by using automatic biochemical analyzer.

[5] = test system: cisplatin-induced C57BL/6J mice; experiment: Hepcidin level in cisplatin-induced renal anemia C57BL/6J mice; assay type: in vivo, mouse; details: 60 mg/kg twice/day, 4 weeks, P<0.05
Description: Modeling method: the animals were randomly divided into 5 groups, i.e., normal control group, model group, three treatment groups, wherein the normal control group was injected with equal volume of normal saline, the model group and three treatment groups were intraperitoneally injected with cisplatin (CDDP) 5 mg/kg once a week, for 4 weeks.
The route of administration is intragastrical. TBN is administered twice a day (fixed at 9:00-10:00 am and 3:00-4:00 pm), and Roxadustat is administered once every two days (fixed at 9:00-10:00 am), for 4 weeks.
Hepcidin is a cysteine-rich antibacterial polypeptide synthesized and secreted by the liver. It plays a negative regulatory role in the regulation of iron balance in the body and can be used to indirectly evaluate the symptoms of anemia in mice. […] Cisplatin and other chemotherapeutic drugs can cause iron regulation imbalance in mice, and TBN administration can reduce the expression level of iron regulation in the body, and thus can be used to treat cancer complicated renal anemia.

`Cc1nc(C)c(/C=[N+](\[O-])C(C)(C)C)nc1C` [TBN] was tested, and the body weight (STZ-induced DKD rats [1]; STZ-induced diabetic nephropathy rats, FIG. 1a) was “no effect”, the water intake (STZ-induced DKD rats [1]; vs model group, FIG. 1b) was “significantly lower” and the food intake (STZ-induced DKD rats [1]; vs model group, FIG. 1c) was “significantly lower”. For the same molecule, the serum cholesterol (STZ-induced DKD rats [2]) was “significantly reduce”, the serum creatinine (STZ-induced DKD rats [2]) was “significantly reduce” and the serum triglyceride (STZ-induced DKD rats [2]) was “significantly reduce”. The serum urea nitrogen (STZ-induced DKD rats [2]) was “significantly reduce”, the “24 h urine microalbumin production” value (db/db mice [3]) was “dose-dependently reduced” and the “iron content in the serum” value (db/db mice [4]; 10 mg/kg) was 30.84±5.92. The “iron content in the serum” value (db/db mice [4]; 30 mg/kg) was 36.20±11.89, the “effect of increasing iron ions compared with positive control drug” value (db/db mice [4]; each dose group of TBN vs Losartan) was “stronger than the positive control drug group” and the “level of iron regulation (hepcidin) vs model group” value [5] was “significantly reduced”.

— patent US12377095B2, “Use of ligustrazine nitrone derivatives in treatment and prevention of diabetic complication diseases” (QINGDAO HAILAN PHARMACEUTICALS CO., LTD., priority 2019, dated 2025)
